In patent US20230109134A1, “PYRIDAZINONE OR PYRIDAZINE COMPOUND AND DERIVATIVE AND PHARMACEUTICAL COMPOSITION THEREOF” (Suzhou Zelgen Biopharmaceuticals Co., Ltd., priority 2019, published 2023):

Key:
[1] = Pharmacokinetic testing evaluation, Test Example 3 (rat plasma); format: in vivo, SD rats
Procedure: (§1) Male SD rats, weighing about 220 g, were divided into 3 groups after fasting overnight, with 4 rats in each group. The first group was intragastrically administered 10 mg/kg solution of compound MGL-3196 prepared in Example 1, and the second group was intragastrically administered 10 mg/kg solution of compound 6B prepared in Example 6 (The dosage is calculated by the relative content of compound MGL-3196 prepared in Example 1), wherein the vehicle of the solution of compound MGL-3196 and compound 6B prepared in Example 6 is DMSO/PEG400. Blood was collected from each group at 0.5, 1.0, 2.0, 4.0, 6.0, 8.0, 12 and 24 hours after administration, and the concentration of active ingredient MGL-3196 in plasma was determined by LC/MS/MS.

[2] = system: Diet-Induced Obesity (DIO) C57Bl/6J mouse; assay: Diet-induced obesity (DIO) C57Bl/6J mouse model; format: in vivo; conditions: DIO C57Bl/6J mice, 1, 3 or 10 mg/kg intragastric, 23 consecutive days
Procedure: 6-week-old C57Bl/6J mice were given a high-fat diet for 34 weeks. Mice were intragastrically administered vehicle (2% Klucel LF, 0.1% Tween 80 in water); 1, 3 or 10 mg/kg of compound 2A, compound 2B prepared in Example 2 or compound MGL-3196 prepared in Example 1 starting from day 0 (1st day of 35 weeks) respectively, 9 mice in each group, for 23 consecutive days. In a parallel study, mice were intragastrically administered vehicle (Dulbecco's phosphate buffered saline, pH adjusted to 9.0 with 1N NaOH) or 10, 30 or 100 μg/kg triiodothyronine (T3) starting from day 0 (day 1 of week 35) respectively, 9 mice in each group, for 23 consecutive days. Body weight and food intake were monitored during the study. BMD and body composition analyses were performed on day 22. At necropsy on day 23, organ weighing was performed and cholesterol and other blood biochemical parameters of blood samples were evaluated.

[3] = Drug concentrations in liver tissue, Test Example 5; format: in vivo, ICR mice; conditions: mouse liver at 1 hr and 6 hr, 10 mg/kg intragastric
Procedure: ICR mice, weighing 20-30 g, were divided into 4 groups after fasting overnight, with 8 mice in each group. The first group was intragastrically administered 10 mg/kg solution of compound MGL-3196 prepared in Example 1, the second group was intragastrically administered 10 mg/kg solution of compound 2A prepared in Example 2 (The dosage is calculated by the relative content of compound MGL-3196 prepared in Example 1), the third group was intragastrically administered 10 mg/kg solution of compound 2B prepared in Example 2 (The dosage is calculated by the relative content of compound MGL-3196 prepared in Example 1) and the fourth group was intragastrically administered 10 mg/kg solution of compound 6B prepared in Example 6 (The dosage is calculated by the relative content of compound MGL-3196 prepared in Example 1), wherein the vehicle of the solution of compound MGL-3196, compound 2A, compound 2B and compound 6B is DMSO/PEG400. The livers of mice in each group were collected at 1 hr and 6 hr after administration, respectively, and the concentration of the active ingredient MGL-3196 in the liver was determined by LC/MS/MS.

[4] = Pharmacokinetic testing evaluation, Test Example 4 (rat plasma); format: in vivo, SD rats; conditions: for plasma exposure AUC relative to compound MGL-3196: rats, 10 mg/kg intragastric, Table 5
Procedure: Male SD rats, weighing about 220 g, were divided into 3 groups after fasting overnight, with 4 rats in each group. The first group was intragastrically administered 10 mg/kg solution of compound MGL-3196 prepared in Example 1, the second group was intragastrically administered 10 mg/kg solution of compound 2A prepared in Example 2 (The dosage is calculated by the relative content of compound MGL-3196 prepared in Example 1), and the third group was intragastrically administered 10 mg/kg solution of compound 2B prepared in Example 2 (The dosage is calculated by the relative content of compound MGL-3196 prepared in Example 1), wherein the vehicle of the solution of compound MGL-3196, compound 2A, and compound 2B is DMSO/PEG400. Blood was collected from each group at 0.5, 1.0, 2.0, 4.0, 6.0, 8.0, 12 and 24 hours after administration, and the concentration of active ingredient MGL-3196 in plasma was determined by LC/MS/MS.

[5] = Pharmacokinetic testing evaluation, Test Example 1 (rat plasma); format: in vivo; conditions: male SD rats, intragastric 10 mg/kg (calculated based on MGL-3196), DMSO/PEG400; plasma concentration of MGL-3196; n = 4, mean
Procedure: as §1, with “into 2” for “into 3”, “compound of” for “compound 6B prepared in”, “Example 5 of WO2009037172A1” for “Example 6”

[6] = Pharmacokinetic testing evaluation, Test Example 2 (rat plasma); format: in vivo; conditions: male SD rats, intragastric 10 mg/kg (calculated based on MGL-3196), DMSO/PEG400; MGL-3196 measured in plasma; n = 4, mean
Procedure: Male SD rats, weighing about 220 g, were divided into 2 groups after fasting overnight, with 4 rats in each group. The first group was intragastrically administered 10 mg/kg solution of compound MGL-3196 prepared in Example 1, and the second group was intragastrically administered 10 mg/kg solution of compound 6A prepared in Example 6 (The dosage is calculated by the relative content of compound MGL-3196 prepared in Example 1), wherein the vehicle of the solution of MGL-3196 compound and compound 6A prepared in Example 6 is DMSO/PEG400. Blood was collected from each group at 0.5, 1.0, 2.0, 4.0, 6.0, 8.0, 12 and 24 hours after administration, and the concentration of active ingredient MGL-3196 in plasma was determined by LC/MS/MS.

[7] = male SD rats, intragastric 10 mg/kg (calculated based on MGL-3196), DMSO/PEG400, MGL-3196 measured in plasma, n = 4, mean

| Compound | plasma exposure AUC relative to compound MGL-3196 ([1]; rats, 10 mg/kg intragastric, Table 4) [times] | efficacy in lowering cholesterol and liver fat [2] | drug concentration in mouse liver compared to MGL-3196 [3] | plasma exposure AUC relative to compound MGL-3196 [4] [times] | T1/2 [5] [h] | Tmax [5] [h] | T1/2 [4, 7] [h] | Tmax [4, 7] [h] | T1/2 [1, 7] [h] | Tmax [1, 7] [h] | T1/2 [6] [h] | Tmax [6] [h] |
| --- | --- | --- | --- | --- | --- | --- | --- | --- | --- | --- | --- | --- |
| CC(C)OC(=O)OCOc1nnc(Oc2c(Cl)cc(-n3nc(C#N)c(=O)[nH]c3=O)cc2Cl)cc1C(C)C [Compound 6B, ((6-(2,6-dichloro-4-(6-cyano-3,5-dioxo-4,5-dihydro-1,2,4-triazin-2(3H)-yl)phenoxy)-4-isopropylpyridazin-3-yl)oxy)methyl Isopropyl Carbonate] | 2.0 | excellent efficacy in lowering cholesterol and liver fat | higher drug concentrations |  |  |  |  |  |  |  |  |  |
| CC(C)OC(=O)OC(C)Oc1nnc(Oc2c(Cl)cc(-n3nc(C#N)c(=O)[nH]c3=O)cc2Cl)cc1C(C)C (centres unmarked) [Compound 2B, 1-((6-(2,6-dichloro-4-(6-cyano-3,5-dioxo-4,5-dihydro-1,2,4-triazin-2(3H)-yl)phenoxy)-4-isopropylpyridazin-3-yl)oxy)ethyl Isopropyl Carbonate] |  | excellent efficacy in lowering cholesterol and liver fat | higher drug concentrations | 1.87 |  |  |  |  |  |  |  |  |
| CC(C)OC(=O)OC(C)n1nc(Oc2c(Cl)cc(-n3nc(C#N)c(=O)[nH]c3=O)cc2Cl)cc(C(C)C)c1=O (centres unmarked) [Compound 2A, 1-(3-(2,6-dichloro-4-(6-cyano-3,5-dioxo-4,5-dihydro-1,2,4-triazin-2(3H)-yl)phenoxy)-5-isopropyl-6-oxopyridazin-1(6H)-yl)ethyl Isopropyl Carbonate] |  | excellent efficacy in lowering cholesterol and liver fat | higher drug concentrations | 2.4 |  |  |  |  |  |  |  |  |
| CC(C)c1cc(Oc2c(Cl)cc(-n3nc(C#N)c(=O)[nH]c3=O)cc2Cl)n[nH]c1=O [MGL-3196, 2-(3,5-dichloro-4-((5-isopropyl-6-oxo-1,6-dihydropyridazin-3-yl)oxy)phenyl)-3,5-dioxo-2,3,4,5-tetrahydro-1,2,4-triazin-6-carbonitrile] |  |  |  |  | 3.35 | 2.75 | 3.73 | 4.5 | 3.55 | 6.0 | 3.54 | 5.00 |
